Among the test systems are SNB-19 CNS; NCI-H522 lung; MALME-3M melanoma; SK-MEL-5 melanoma; SN12C renal; CCRF-CEM leukemia; SK-MEL-28 melanoma; HS 578T breast; U251 CNS; SR leukemia.
What all share (test): NCI tumour cell line growth inhibition, 48 h

SMILES strings stand for the structures. Values joined by “and” are separate entries in the source; they are usually repeats but may differ in a detail not shown here. Identical values can stand only once.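 Interpolation was linear, between the two tested concentrations surrounding the appropriate level; five concentrations were tested over 48 hours in 96-well plates. Here, GI50 denotes the concentration required for 50% inhibition of growth. TGI marks complete inhibition of growth.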

With `CCCCN(CCCC)CCCN=c1nc2c(c(N)n1-c1ccccc1)c(=S)n(-c1ccccc1)c(=S)n2-c1ccccc1`, the GI50 is 1290 nM in the assay on SNB-19 CNS; 664 nM in the assay with NCI-H522 lung; 604 nM with MALME-3M melanoma; 1020 nM in the assay with SK-MEL-5 melanoma; 1410 nM with SN12C renal; 215 nM in the assay with CCRF-CEM leukemia. In addition, the GI50 in the assay with SK-MEL-28 melanoma is 173 nM; in the assay with HS 578T breast, 0.78 µM; in the assay on U251 CNS it was 340 nM; in the assay on SR leukemia, 273 nM. For the same compound, the TGI in the assay with SNB-19 CNS was 2.74 µM; in the assay on NCI-H522 lung it was 2230 nM; in the assay on MALME-3M melanoma it was 1.31 µM; in the assay on SK-MEL-5 melanoma it was 2.3 µM; with SN12C renal, 2.79 µM; in the assay with SK-MEL-28 melanoma it was 0.338 µM. Moreover, the TGI in the assay with HS 578T breast is 3.16 µM; in the assay on U251 CNS, 1.27 µM; in the assay with SR leukemia, 1.46 µM.

On to `COc1cc([C@@H]2c3cc4c(cc3[C@@H](O[C@@H]3O[C@@H]5CO[C@@H](c6cccs6)O[C@H]5[C@H](O)[C@H]3O)[C@H]3COC(=O)[C@H]23)OCO4)cc(OC)c1O`, for which the GI50 with SNB-19 CNS is 167 nM; in the assay on NCI-H522 lung, 208 nM; in the assay with MALME-3M melanoma, 435 nM; in the assay with SK-MEL-5 melanoma it was 157 nM; in the assay with SN12C renal, 166 nM; with CCRF-CEM leukemia, 70.4 nM. Further, the GI50 was 440 nM in the assay on SK-MEL-28 melanoma, 2.03 µM in the assay on HS 578T breast, 180 nM with U251 CNS and 10.1 nM in the assay with SR leukemia. Besides, the TGI is above 100 µM in the assay on SNB-19 CNS; 1400 nM with NCI-H522 lung; 5.02 µM with MALME-3M melanoma; 1.33 µM with SK-MEL-5 melanoma; 2.73 µM in the assay on SN12C renal; above 100 µM in the assay with CCRF-CEM leukemia. Also, the TGI in the assay on SK-MEL-28 melanoma is 2.9 µM; in the assay with HS 578T breast, 15.3 µM; with U251 CNS, 6.96 µM; in the assay with SR leukemia it was 15 µM.

With `N#Cc1c(NC(=O)CN2CCOCC2)sc2c1CCCC2`, the GI50 in the assay on SNB-19 CNS, in the assay with NCI-H522 lung, in the assay on MALME-3M melanoma, in the assay with SK-MEL-5 melanoma, in the assay on SN12C renal and in the assay with CCRF-CEM leukemia was above 25000 nM throughout. In addition, the GI50 in the assay on SK-MEL-28 melanoma was above 25000 nM; in the assay with HS 578T breast, above 25 µM; in the assay with U251 CNS, above 25000 nM; in the assay on SR leukemia it was above 25000 nM. The TGI in the assay with SNB-19 CNS was above 25 µM; in the assay with NCI-H522 lung, above 25000 nM; in the assay on MALME-3M melanoma, above 25 µM; in the assay on SK-MEL-5 melanoma it was above 25 µM; in the assay on SN12C renal, above 25 µM; with CCRF-CEM leukemia it was above 25 µM. The TGI with SK-MEL-28 melanoma, with HS 578T breast, in the assay on U251 CNS and with SR leukemia was above 25 µM each time.

For the compound `CN(C)CCCNc1nccc(-c2c(-c3ccc(F)cc3)nn3cc(C(F)(F)F)ccc23)n1`, the GI50 in the assay on SNB-19 CNS is above 19600 nM; in the assay on NCI-H522 lung, 6770 nM; in the assay with MALME-3M melanoma, 4320 nM; in the assay on SK-MEL-5 melanoma it was 3480 nM; in the assay on SN12C renal it was 15300 nM; in the assay on CCRF-CEM leukemia, 8080 nM. The GI50 with SK-MEL-28 melanoma is 4290 nM; in the assay with HS 578T breast, 7.7 µM; with U251 CNS, 10700 nM; in the assay with SR leukemia, 5150 nM. The TGI was above 25 µM in the assay on SNB-19 CNS; above 25000 nM in the assay with NCI-H522 lung; 9.36 µM in the assay on MALME-3M melanoma; 6.75 µM with SK-MEL-5 melanoma; above 25 µM with SN12C renal; above 25 µM with CCRF-CEM leukemia. For the same compound, the TGI was 8.49 µM in the assay on SK-MEL-28 melanoma, above 25 µM in the assay on HS 578T breast, above 25 µM in the assay on U251 CNS and 12.6 µM in the assay with SR leukemia.

Regarding `CC1=C(/C=C/C(C)=C/C=C/C(C)=C/C(=O)Nc2ccc(O)cc2)C(C)(C)CCC1`, the GI50 is 4830 nM in the assay with SNB-19 CNS; 262 nM in the assay on NCI-H522 lung; 2100 nM with MALME-3M melanoma; 2100 nM in the assay on SK-MEL-5 melanoma; 1610 nM with SN12C renal; 238 nM with CCRF-CEM leukemia. The GI50 with SK-MEL-28 melanoma is 2870 nM; with HS 578T breast, 6.25 µM; in the assay on U251 CNS it was 1940 nM; with SR leukemia, 2530 nM and 1330 nM. For the same compound, the TGI with SNB-19 CNS is 20.4 µM and 18.2 µM; in the assay with NCI-H522 lung, 787 nM and 2820 nM; with MALME-3M melanoma, 6.48 µM and 18.7 µM; in the assay with SK-MEL-5 melanoma it was 7.21 µM and 12 µM; with SN12C renal, 5.23 µM and 5.63 µM; with CCRF-CEM leukemia it was 13.5 µM and 3.59 µM. In addition, the TGI with SK-MEL-28 melanoma was 8.69 µM and 12.1 µM; in the assay with HS 578T breast it was 27.4 µM and 13.7 µM; in the assay with U251 CNS, 7.79 µM and 33.3 µM; in the assay on SR leukemia, 6.02 µM and 5.97 µM.

On to `COC(=O)[C@@]1(C)CC[C@]2(C)CC[C@]3(C)C4=CC=C5C(=CC(=O)C(O)=C5C)[C@]4(C)CC[C@@]3(C)[C@@H]2C1`, for which the GI50 with SNB-19 CNS is 276 nM; in the assay on NCI-H522 lung, 180 nM; with MALME-3M melanoma, 232 nM; with SK-MEL-5 melanoma, 200 nM; in the assay on SN12C renal it was 201 nM; in the assay on CCRF-CEM leukemia it was 210 nM. In addition, the GI50 in the assay with SK-MEL-28 melanoma is 244 nM; with HS 578T breast it was 0.289 µM; in the assay with U251 CNS, 173 nM; with SR leukemia it was 190 nM. Moreover, the TGI in the assay with SNB-19 CNS was found to be 0.936 µM; with NCI-H522 lung, 435 nM; with MALME-3M melanoma, 0.446 µM; with SK-MEL-5 melanoma it was 0.57 µM; with SN12C renal it was 0.507 µM; in the assay with CCRF-CEM leukemia, 0.745 µM. Moreover, the TGI came out at 0.601 µM in the assay with SK-MEL-28 melanoma, 1.52 µM in the assay on HS 578T breast, 0.321 µM in the assay with U251 CNS and 0.564 µM in the assay on SR leukemia.

Turning to `COC(=O)c1ccc([N+](=O)[O-])c(O)c1`, the TGI is above 100 µM in the assay with SNB-19 CNS; above 100000 nM with NCI-H522 lung; above 100 µM in the assay on MALME-3M melanoma; above 100 µM in the assay on SK-MEL-5 melanoma; above 100 µM with SN12C renal; above 100 µM in the assay with CCRF-CEM leukemia. Also, the TGI in the assay on SK-MEL-28 melanoma, in the assay with HS 578T breast, in the assay on U251 CNS and in the assay on SR leukemia was above 100 µM throughout.

Regarding `C#COc1cccc(Nc2ncnc3ncc(NC(=O)CCl)cc23)c1`, the GI50 in the assay on SNB-19 CNS is above 43300 nM; with NCI-H522 lung it was above 17900 nM; in the assay on MALME-3M melanoma, above 23700 nM; in the assay with SK-MEL-5 melanoma, above 51200 nM; with SK-MEL-28 melanoma, above 59600 nM; with HS 578T breast, above 62.5 µM. For the same compound, in the assay on U251 CNS, the GI50 was above 13300 nM. For the same compound, the TGI in the assay with SNB-19 CNS is above 62.5 µM; in the assay on NCI-H522 lung it was above 29900 nM; in the assay with MALME-3M melanoma it was above 38 µM; in the assay on SK-MEL-5 melanoma, above 62.5 µM; with SN12C renal it was above 62.5 µM; in the assay on CCRF-CEM leukemia, above 62.5 µM. In addition, the TGI was above 62.5 µM with SK-MEL-28 melanoma, above 62.5 µM with HS 578T breast, above 34.5 µM with U251 CNS and above 62.5 µM with SR leukemia.
